Laboratory results: patent US20080089874A1, “DIRECTED DIFFERENTIATION AND MATURATION OF STEM CELL-DERIVED CARDIOMYOCYTES” (The Regents of the University of California, priority 2006, published 2008)
“Also recorded” adds a separate entry of the source.

How the values were obtained:
adult guinea pig LVCMs = format: cell-based
ACMs = format: cell-based, guinea pig

NC1=N[C@H](O)[C@H]2[C@H]3O[C@]4(O)O[C@@H]([C@@H](O)[C@@]2(N1)[C@@H]4O)[C@]3(O)CO [TTX, tetrodotoxin]
AP overshoot (adult guinea pig LVCMs): disappeared
change in phase 4 slope and MDP (adult guinea pig LVCMs): no statistical difference
cycle length (adult guinea pig LVCMs): 328 ± 23 ms
maximal upstroke velocity of AP (adult guinea pig LVCMs): 5.3±0.6 V/s
shift in TOP (adult guinea pig LVCMs): 17 mV

CC(=O)OCC[N+](C)(C)C [acetylcholine]
MDP (adult guinea pig LVCMs): −59.0±1.0 mV
cycle length (adult guinea pig LVCMs): 293 ± 16 ms
effect on spontaneous APs (adult guinea pig LVCMs): no effect
phase 4 slope (adult guinea pig LVCMs): 241±16 mV/s

CC(C)NCC(O)c1ccc(O)c(O)c1 (centres unmarked) [isoproterenol]
MDP (adult guinea pig LVCMs): −55.5±0.7 mV
TOP (adult guinea pig LVCMs): −45.2±0.4 mV
cycle length (adult guinea pig LVCMs): 182 ± 4.1 ms
increase in firing rate (adult guinea pig LVCMs): 27%
midpoint (V1/2) of steady-state activation (adult guinea pig LVCMs): −56.9±1.6 mV
phase 4 slope (adult guinea pig LVCMs): 350±12 mV/s

ZD7288
APD50 (adult guinea pig LVCMs): 272 ± 31 ms
effect of ZD7288 on induced If and AP firing (adult guinea pig LVCMs): blocked; also recorded: silenced
sensitivity of Ad-CGI-HCN1-induced If to HCN blocker (adult guinea pig LVCMs): sensitive
RMP (ACMs): −47.6±1.2 mV
effect of If suppression on firing (ACMs): triggered rhythmic firing; also recorded: generated AP
